Results published in ChEMBL document CHEMBL1134914, “Acyl dipeptides as reversible caspase inhibitors. Part 1: initial lead optimization” (Bioorg Med Chem Lett, 2002).

Assays:
Caspase-1 (Mus musculus) = Caspase-1 (Mus musculus) (UniProt P29452)
Caspase-7 = target: T1, Caspase-7 (Homo sapiens, UniProt P55210); experiment: Inhibitory concentration against caspase-7
T1 sequence (P55210 whole entry): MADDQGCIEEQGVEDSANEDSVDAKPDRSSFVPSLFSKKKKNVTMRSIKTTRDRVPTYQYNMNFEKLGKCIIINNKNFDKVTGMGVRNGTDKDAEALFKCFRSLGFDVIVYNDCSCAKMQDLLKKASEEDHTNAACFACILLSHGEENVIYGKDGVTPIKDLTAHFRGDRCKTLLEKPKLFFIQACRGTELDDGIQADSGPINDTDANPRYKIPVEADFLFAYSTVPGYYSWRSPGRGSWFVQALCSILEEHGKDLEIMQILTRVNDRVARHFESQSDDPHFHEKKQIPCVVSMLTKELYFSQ

Caspase-6 = target: T2, Caspase-6 (Homo sapiens, UniProt P55212); experiment: Inhibitory concentration required against caspase-6
T2 sequence (P55212 whole entry): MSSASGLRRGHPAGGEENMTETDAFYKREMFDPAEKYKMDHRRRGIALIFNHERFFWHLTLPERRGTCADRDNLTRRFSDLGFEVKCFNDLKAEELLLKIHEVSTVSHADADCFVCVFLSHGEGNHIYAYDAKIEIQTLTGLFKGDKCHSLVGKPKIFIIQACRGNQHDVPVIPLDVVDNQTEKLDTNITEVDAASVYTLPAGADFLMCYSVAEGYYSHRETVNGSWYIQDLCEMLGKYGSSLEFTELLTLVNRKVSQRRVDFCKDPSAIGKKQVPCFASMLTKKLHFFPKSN

Caspase-8 = Caspase-8 (Homo sapiens, UniProt Q14790); experiment: Inhibitory concentration against caspase-8
Caspase-3 = target: T3, Caspase-3 (Homo sapiens, UniProt P42574); experiment: Inhibitory concentration against caspase-3
T3 sequence (P42574 whole entry): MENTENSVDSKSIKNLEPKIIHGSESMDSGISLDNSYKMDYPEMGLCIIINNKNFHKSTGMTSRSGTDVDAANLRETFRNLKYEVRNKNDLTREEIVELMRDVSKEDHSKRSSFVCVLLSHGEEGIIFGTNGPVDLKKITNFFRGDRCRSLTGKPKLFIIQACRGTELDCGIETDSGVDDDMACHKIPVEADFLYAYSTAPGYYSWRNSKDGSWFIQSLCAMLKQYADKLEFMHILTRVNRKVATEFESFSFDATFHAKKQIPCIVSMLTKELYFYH

Sequence of Caspase-8 (Q14790 217-374 limits assumed): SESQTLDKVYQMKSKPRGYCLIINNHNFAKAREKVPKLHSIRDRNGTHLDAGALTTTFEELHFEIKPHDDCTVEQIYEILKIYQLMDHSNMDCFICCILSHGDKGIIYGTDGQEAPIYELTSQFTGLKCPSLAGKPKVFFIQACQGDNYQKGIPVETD
Sequence of Caspase-8 (Q14790 385-479 limits assumed): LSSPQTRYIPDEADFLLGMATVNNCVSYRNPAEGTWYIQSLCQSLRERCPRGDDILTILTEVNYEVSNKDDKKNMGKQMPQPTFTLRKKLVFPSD
Sequence of Caspase-1 (Mus musculus) (P29452 whole entry, looked up): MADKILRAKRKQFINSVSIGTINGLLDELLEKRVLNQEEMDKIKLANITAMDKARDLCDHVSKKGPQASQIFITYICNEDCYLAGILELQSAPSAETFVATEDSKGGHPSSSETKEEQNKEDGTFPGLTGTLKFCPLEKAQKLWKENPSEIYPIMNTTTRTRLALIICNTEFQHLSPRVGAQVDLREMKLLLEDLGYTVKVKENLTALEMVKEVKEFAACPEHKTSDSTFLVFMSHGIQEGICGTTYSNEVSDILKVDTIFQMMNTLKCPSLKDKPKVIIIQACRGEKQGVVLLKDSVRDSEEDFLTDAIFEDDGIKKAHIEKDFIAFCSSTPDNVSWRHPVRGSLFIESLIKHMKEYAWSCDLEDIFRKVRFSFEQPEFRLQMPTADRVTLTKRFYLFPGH

SMILES | IC50 (Caspase-1 (Mus musculus)) | IC50 (Caspase-7) | IC50 (Caspase-6) | IC50 (Caspase-8) | IC50 (Caspase-3)
COc1ccc(OCC(=O)N[C@@H](CC(C)C)C(=O)N[C@H]2CC(=O)OC2O)c2ccccc12 (stereo partly drawn) | 0.831 µM | 4.08 µM | 22.6 µM | 1.45 µM | 0.263 µM
CC(C)C[C@H](NC(=O)COc1nccc2ccccc12)C(=O)N[C@H]1CC(=O)OC1O (stereo partly drawn) | 44.2 µM | 34.7 µM | > 50 µM | > 50 µM | 1.57 µM
CC(C)C[C@H](NC(=O)COc1ccccc1)C(=O)N[C@H]1CC(=O)OC1O (stereo partly drawn) | > 10 µM | > 10 µM | > 50 µM | > 10 µM | 3.4 µM
CC(C)C[C@H](NC(=O)CCCc1ccc2ccccc2c1)C(=O)N[C@H]1CC(=O)OC1O (stereo partly drawn) | 1.8 µM | 18.2 µM | 14.5 µM | > 50 µM | 2.76 µM
CC(C)C[C@H](NC(=O)COc1ccc(OCc2ccccc2)cc1)C(=O)N[C@H]1CC(=O)OC1O (stereo partly drawn) | 2.51 µM | 7.25 µM | 33.4 µM | 8.6 µM | 0.57 µM
CC(C)C[C@H](NC(=O)c1cccc2ccccc12)C(=O)N[C@H]1CC(=O)OC1O (stereo partly drawn) | – | > 10 µM | > 10 µM | > 10 µM | > 10 µM
CC(C)C[C@H](NC(=O)CCOc1ccc2ccccc2c1)C(=O)N[C@H]1CC(=O)OC1O (stereo partly drawn) | 1.32 µM | 9.65 µM | 5.9 µM | 15.2 µM | 0.91 µM
CC(C)C[C@H](NC(=O)COc1ccnc2ccccc12)C(=O)N[C@H]1CC(=O)OC1O (stereo partly drawn) | 35.3 µM | 4.57 µM | > 50 µM | > 50 µM | 0.232 µM
CC(C)[C@@H](NC(=O)OCc1ccccc1)C(=O)C[C@H]1CC(=O)OC1O (stereo partly drawn) | 5.85 µM | 6.81 µM | 10 µM | 12 µM | 1.75 µM
CC(C)C[C@H](NC(=O)Cc1ccc2ccccc2c1)C(=O)N[C@H]1CC(=O)OC1O (stereo partly drawn) | 3.14 µM | > 10 µM | 11.1 µM | 12.7 µM | 0.849 µM
CC(C)C[C@H](NC(=O)COc1ccccc1OCc1ccccc1)C(=O)N[C@H]1CC(=O)OC1O (stereo partly drawn) | 2.4 µM | 2.2 µM | 9.75 µM | 4.34 µM | 0.222 µM
CC(C)C[C@H](NC(=O)c1ccc2ccccc2c1)C(=O)N[C@H]1CC(=O)OC1O (stereo partly drawn) | 1.74 µM | > 10 µM | > 10 µM | > 10 µM | 6.74 µM
CC(C)C[C@H](NC(=O)COc1cccc2cccnc12)C(=O)N[C@H]1CC(=O)OC1O (stereo partly drawn) | 13.7 µM | 1.51 µM | 12.5 µM | 2.24 µM | 0.147 µM
CC(C)C[C@H](NC(=O)CCc1cccc2ccccc12)C(=O)N[C@H]1CC(=O)OC1O (stereo partly drawn) | 1.86 µM | 8.77 µM | 4.18 µM | 12.2 µM | 1.59 µM
CC(C)C[C@H](NC(=O)/C=C/c1ccccc1)C(=O)N[C@H]1CC(=O)OC1O (stereo partly drawn) | 0.65 µM | 9.72 µM | 5.05 µM | 13.4 µM | 1.39 µM
CC(C)C[C@H](NC(=O)COc1cccc2cnccc12)C(=O)N[C@H]1CC(=O)OC1O (stereo partly drawn) | 5.14 µM | 3.48 µM | 42.7 µM | 3.64 µM | 0.407 µM
CC(C)C[C@H](NC(=O)CCOc1ccccc1)C(=O)N[C@H]1CC(=O)OC1O (stereo partly drawn) | 9.42 µM | 6.04 µM | > 50 µM | > 10 µM | 0.419 µM
CC(C)C[C@H](NC(=O)CCSc1ccc2ccccc2c1)C(=O)N[C@H]1CC(=O)OC1O (stereo partly drawn) | 0.611 µM | 5.89 µM | 1.62 µM | 15 µM | 0.837 µM
CC(C)C[C@H](NC(=O)COc1ccccc1Cc1ccccc1)C(=O)N[C@H]1CC(=O)OC1O (stereo partly drawn) | 0.521 µM | 3.36 µM | 10.1 µM | 6.05 µM | 0.49 µM
CC(C)C[C@H](NC(=O)COc1ccc(Oc2ccccc2)cc1)C(=O)N[C@H]1CC(=O)OC1O (stereo partly drawn) | 2.21 µM | 6.82 µM | 21.2 µM | 9.28 µM | 0.545 µM
CC(C)C[C@H](NC(=O)CCOc1cccc2ccccc12)C(=O)N[C@H]1CC(=O)OC1O (stereo partly drawn) | – | 1.37 µM | 0.305 µM | 9.81 µM | 0.059 µM

SMILES | IC50 (Caspase-1 (Mus musculus)) | IC50 (Caspase-7) | IC50 (Caspase-6) | IC50 (Caspase-8) | IC50 (Caspase-3)
CC(C)C[C@H](NC(=O)C(C)Oc1cccc2ccccc12)C(=O)N[C@H]1CC(=O)OC1O (stereo partly drawn) | – | 1.32 µM | 1.28 µM | 2.43 µM | 0.376 µM
CC(C)C[C@H](NC(=O)CCSc1cccc2ccccc12)C(=O)N[C@H]1CC(=O)OC1O (stereo partly drawn) | 0.563 µM | 3.6 µM | 2.72 µM | 16.3 µM | 0.412 µM
CC(C)C[C@H](Nc1ccccc1)C(=O)N[C@H]1CC(=O)OC1O (stereo partly drawn) | > 10 µM | > 10 µM | > 50 µM | > 10 µM | 3.4 µM
CC(C)C[C@H](NC(=O)C(C)Oc1cccc2cc(Br)ccc12)C(=O)N[C@H]1CC(=O)OC1O (stereo partly drawn) | – | 32.4 µM | 13.8 µM | 29.1 µM | 4.81 µM
CC(C)C[C@H](NC(=O)CC(=O)c1ccc2ccccc2c1)C(=O)N[C@H]1CC(=O)OC1O (stereo partly drawn) | 0.543 µM | 7.43 µM | 10.3 µM | 5.23 µM | 1.42 µM
CC(C)C[C@H](NC(=O)COc1cccc2c1CCCC2)C(=O)N[C@H]1CC(=O)OC1O (stereo partly drawn) | 1.81 µM | 2.74 µM | 11.8 µM | 1.75 µM | 0.324 µM
CC(C)C[C@H](NC(=O)COc1cccc2ncccc12)C(=O)N[C@H]1CC(=O)OC1O (stereo partly drawn) | 5.25 µM | 3.85 µM | > 50 µM | 4.02 µM | 0.412 µM
CC(C)C[C@H](NC(=O)CSc1cccc2ccccc12)C(=O)N[C@H]1CC(=O)OC1O (stereo partly drawn) | 2.75 µM | 1.74 µM | 1.43 µM | 7.42 µM | 0.195 µM
CC(C)C[C@H](NC(=O)COc1cccc2ccccc12)C(=O)N[C@H]1CC(=O)OC1O (stereo partly drawn) | – | 1.81 µM | 0.94 µM | 0.77 µM | 0.135 µM
CC(C)C[C@H](NC(=O)Cc1cccc2ccccc12)C(=O)N[C@H]1CC(=O)OC1O (stereo partly drawn) | 3.24 µM | 7.27 µM | – | – | 0.853 µM
CC(C)C[C@H](NC(=O)CC(=O)c1cccc2ccccc12)C(=O)N[C@H]1CC(=O)OC1O (stereo partly drawn) | 0.408 µM | 11.3 µM | 11.8 µM | 11.2 µM | 0.967 µM
Cc1ccc(OCC(=O)N[C@@H](CC(C)C)C(=O)N[C@H]2CC(=O)OC2O)c(C23CC4CC(CC(C4)C2)C3)c1 (stereo partly drawn) | 1.43 µM | 2.79 µM | 5.86 µM | 3.87 µM | 0.474 µM
CC(C)C[C@H](NC(=O)COc1ccccc1C1CCCC1)C(=O)N[C@H]1CC(=O)OC1O (stereo partly drawn) | 0.538 µM | 1.49 µM | 3.37 µM | 1.86 µM | 0.197 µM
CC(C)C[C@H](NC(=O)COc1ccc2c(c1)CCCC2)C(=O)N[C@H]1CC(=O)OC1O (stereo partly drawn) | 2.57 µM | 2.31 µM | 28.6 µM | 4.95 µM | 0.162 µM
CC(C)C[C@H](NC(=O)COc1ccc(Cc2ccccc2)cc1)C(=O)N[C@H]1CC(=O)OC1O (stereo partly drawn) | 1.8 µM | 4.41 µM | 18.9 µM | 4.72 µM | 0.346 µM
CC(C)C[C@H](NC(=O)CSc1ccc2ccccc2c1)C(=O)N[C@H]1CC(=O)OC1O (stereo partly drawn) | 0.792 µM | 2.52 µM | 3.16 µM | 11 µM | 0.269 µM
CC(C)C[C@H](NC(=O)COc1ccc(C23CC4CC(CC(C4)C2)C3)cc1)C(=O)N[C@H]1CC(=O)OC1O (stereo partly drawn) | 1.83 µM | 8.24 µM | 32.5 µM | 4.35 µM | 0.528 µM
CC(C)C[C@H](NC(=O)COc1ccc(Cl)c2ccccc12)C(=O)N[C@H]1CC(=O)OC1O (stereo partly drawn) | 0.429 µM | 3.38 µM | 12 µM | 1.69 µM | 0.231 µM
CC(C)C[C@H](NC(=O)COc1cccc(-c2ccccc2)c1)C(=O)N[C@H]1CC(=O)OC1O (stereo partly drawn) | 1.1 µM | 3.75 µM | 14.5 µM | 3.86 µM | 0.311 µM
CC(C)C[C@H](NC(=O)COc1ccccc1-c1ccccc1)C(=O)N[C@H]1CC(=O)OC1O (stereo partly drawn) | 0.636 µM | 2.02 µM | 0.717 µM | 1.71 µM | 0.095 µM
CC(C)C[C@H](NC(=O)COc1ccc(C2CCCC2)cc1)C(=O)N[C@H]1CC(=O)OC1O (stereo partly drawn) | 2.2 µM | 5.23 µM | 51.2 µM | 5.9 µM | 0.319 µM
